Laboratory results from PubChem BioAssay AID1963842 (Molecular Pharmacology Branch, DTP, NCI, 2024).

Tested on: 677734-321-R-J1-PDC complex spheroid viability
Assay: Anticancer human tumor 677734-321-R-J1-PDC patient-derived soft tissue sarcoma cell line growth inhibition [POLQ]
Settings: for IC50: curve of first compound; for viability, T/C: stronger effect = lower value
Method: Multicellular complex tumor spheroid response to Polymerase (POL) inhibitors (novobiocin, ART-558, RP6685) in combination with a variety of drugs and investigational agents in selected tumor cell lines
The POL inhibitors (novobiocin, ART-558, and RP6685) were evaluated both individually and in combination with standard of care and investigational anticancer small molecules within a complex spheroid model of solid tumors. . Complex spheroids include a stromal component modeled by human endothelial cells (HUVEC) and fibroblasts modeled by human mesenchymal stem cells (MSCs). The concentration ranges selected for each drug and investigational agent were based upon clinically achievable concentrations if the clinical Cmax of the agent was known.
Compounds. The drugs and investigational agents: novobiocin (NSC847541), ART-558 (NSC835418), RP-6685 (NSC848927), peposertib (NSC802822), ceralasertib (NSC780249), elimusertib (NSC800525), camonsertib (NSC841442), AZD-1390 (NSC803789), olaparib (NSC753686), talazoparib (NSC767125), rucaparib (NSC756644), sotorasib (NSC818433), MRTX-1133 (NSC836407), SN-38 (NSC673596), topotecan (NSC609699), epotoside (NSC141540), doxorubicin (NSC123127), gemcitabine (NSC613327), 5-fluorouracil (NSC19893), paclitaxel (NSC125973), vemurafenib (NSC761431), MSA-2 (NSC828583), SN-011 (NSC837082), adavosertib (NSC754352), prexasertib (NSC758257), carboplatin (NSC241240) and oxaliplatin (NSC266046), were obtained from the National Cancer Institute (NCI) Developmental Therapeutics Program Chemical Repository (21). The FDA-approved anticancer drug set is available from the Developmental Therapeutics Program at https://dtp.cancer.gov/organization/dscb/obtaining/. […] The stock solutions were prepared in dimethyl sulfoxide (DMSO, Sigma-Aldrich, St. Louis, MO, cat. D2650), except for the platinum compounds which were prepared in saline (Quality Biological, Gaithersburg, MD, cat. 114-055-101), at 800-fold the tested concentration and stored at -70 degrees C prior to their use. All drugs and investigational agents were tested over a range starting from a high concentration at or near the clinical Cmax and decreasing in half-log increments. If the clinical Cmax for an agent had not been determined, the highest concentration tested was 10 microM, except for SN-38, which was tested at a high concentration of 1 microM.
Cell Culture. All cells were maintained in an incubator at 37 degrees C and 5% CO2 with 95% humidity. The PDC lines were cultured according to standard operating procedures established by the NCI PDMR (https://pdmr.cancer.gov). Table 3 of the manuscript, lists the cell lines along with the number of the three cell types plated to form the mct-spheroids and media for tumor cell growth. After thawing, all PDC lines, except 997537-175-T-J1-PDC and 415267-285-R-J2-PDC, were cultured in Matrigel-coated flasks prepared with a working solution of 1X Ham's F-12 nutrient mix, without supplementation (Thermo Fisher Scientific, cat. 11765054), 100 U/mL penicillin-streptomycin (Thermo Fisher Scientific, cat. 15140122), and 2.5% Matrigel (Corning Inc., Corning, NY, cat. 354248) for the first three passages. The two PDC lines 997537-175-T-J1-PDC and 415267-285-R-J2-PDC were cultured on uncoated flasks. The 857933-349-R-J2-PDC line was cultured in 6C/Colon 1B media containing advanced DMEM/F-12 (Thermo Fisher Scientific, cat. 12634028), 10 mM HEPES (Thermo Fisher Scientific, cat. 15630080), 1X GlutaMAX supplement (Thermo Fisher Scientific, cat. 35050061), 0.1 mg/mL primocin (InvivoGen, San Diego, CA, cat. ant-pm-2), 10% defined fetal bovine serum, heat inactivated (HyClone Laboratories Inc., Logan, UT, cat. SH30070.03HI), 50% L-WRN conditioned media (ATCC, cat. CRL-3276), 1.25 mM N-Acetyl-L-cysteine (Sigma-Aldrich, cat. A9165), 10 mM nicotinamide (Sigma-Aldrich, cat. N0636), 1X B-27 supplement (Thermo Fisher Scientific, cat. 17504044), 1X N-2 supplement (Thermo Fisher Scientific, cat. […]

[1] = second compound 0.0316 µM, first compound 0.0316 µM
[2] = second compound 0.0316 µM, first compound 0.1 µM
[3] = second compound 0.0316 µM, first compound 0.316 µM
[4] = second compound 0.0316 µM, first compound 1 µM
[5] = second compound 0.0316 µM, first compound 3.16 µM
[6] = second compound 0.0316 µM, first compound 10 µM
[7] = second compound 0.1 µM, first compound 0.0316 µM
[8] = second compound 0.1 µM, first compound 0.1 µM
[9] = second compound 0.1 µM, first compound 0.316 µM
[10] = second compound 0.1 µM, first compound 1 µM
[11] = second compound 0.1 µM, first compound 3.16 µM
[12] = second compound 0.1 µM, first compound 10 µM
[13] = second compound 0.316 µM, first compound 0.0316 µM
[14] = second compound 0.316 µM, first compound 0.1 µM
[15] = second compound 0.316 µM, first compound 0.316 µM
[16] = second compound 0.316 µM, first compound 1 µM
[17] = second compound 0.316 µM, first compound 3.16 µM
[18] = second compound 0.316 µM, first compound 10 µM
[19] = second compound 1 µM, first compound 0.0316 µM
[20] = second compound 1 µM, first compound 0.1 µM
[21] = second compound 1 µM, first compound 0.316 µM
[22] = second compound 1 µM, first compound 1 µM
[23] = second compound 1 µM, first compound 3.16 µM
[24] = second compound 1 µM, first compound 10 µM
[25] = second compound 3.16 µM, first compound 0.0316 µM
[26] = second compound 3.16 µM, first compound 0.1 µM
[27] = second compound 3.16 µM, first compound 0.316 µM
[28] = second compound 3.16 µM, first compound 1 µM
[29] = second compound 3.16 µM, first compound 3.16 µM
[30] = second compound 3.16 µM, first compound 10 µM
[31] = second compound 10 µM, first compound 0.0316 µM
[32] = second compound 10 µM, first compound 0.1 µM
[33] = second compound 10 µM, first compound 0.316 µM
[34] = second compound 10 µM, first compound 1 µM
[35] = second compound 10 µM, first compound 3.16 µM
[36] = second compound 10 µM, first compound 10 µM
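Further: spheroids exposed to compounds for one week.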
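Wherever viability, T/C is given: 100% = vehicle DMSO treated spheroids.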

SMILES: COc1ccc([C@@H](O)c2cc(-c3ncnc4cc(N5CCOCC5)ccc34)c(F)cc2Cl)nn1 + Cc1cccc(N(C)C(=O)C2C(O)CCN2c2nc(C)cc(C(F)(F)F)c2C#N)c1
- IC50 (second compound 0.0316 µM): > 10000 nM
- IC50 (second compound 0.1 µM): 9310 nM
- IC50 (second compound 0.316 µM): 9220 nM
- IC50 (second compound 1 µM): > 10000 nM
- IC50 (second compound 3.16 µM): > 10000 nM
- IC50 (second compound 10 µM): 7640 nM
- viability, T/C [1]: 109%
- viability, T/C [2]: 103%
- viability, T/C [3]: 96.2%
- viability, T/C [4]: 93.4%
- viability, T/C [5]: 74.9%
- viability, T/C [6]: 53.7%
- viability, T/C [7]: 99.3%
- viability, T/C [8]: 98.9%
- viability, T/C [9]: 95%
- viability, T/C [10]: 92.9%
- viability, T/C [11]: 79.4%
- viability, T/C [12]: 47.6%
- viability, T/C [13]: 105%
- viability, T/C [14]: 101%
- viability, T/C [15]: 93.8%
- viability, T/C [16]: 91.3%
- viability, T/C [17]: 77.4%
- viability, T/C [18]: 47.2%
- viability, T/C [19]: 107%
- viability, T/C [20]: 97.8%
- viability, T/C [21]: 92.7%
- viability, T/C [22]: 90.1%
- viability, T/C [23]: 81.2%
- viability, T/C [24]: 55.5%
- viability, T/C [25]: 102%
- viability, T/C [26]: 101%
- viability, T/C [27]: 90.8%
- viability, T/C [28]: 95.7%
- viability, T/C [29]: 68.7%
- viability, T/C [30]: 50.9%
- viability, T/C [31]: 102%
- viability, T/C [32]: 90.4%
- viability, T/C [33]: 94.6%
- viability, T/C [34]: 92.5%
- viability, T/C [35]: 69.7%
- viability, T/C [36]: 44%

SMILES: COc1cc(C2c3cc4c(cc3C(OC3OC5COC(C)OC5C(O)C3O)C3COC(=O)C23)OCO4)cc(OC)c1O (centres undefined) + COC1C(OC(N)=O)C(O)C(Oc2ccc3c(O)c(NC(=O)c4ccc(O)c(CC=C(C)C)c4)c(=O)oc3c2C)OC1(C)C
- IC50 (second compound 0.0316 µM): 711 nM
- IC50 (second compound 0.1 µM): 732 nM
- IC50 (second compound 0.316 µM): 938 nM
- IC50 (second compound 1 µM): 667 nM
- IC50 (second compound 3.16 µM): 843 nM
- IC50 (second compound 10 µM): 704 nM
- viability, T/C [1]: 107%
- viability, T/C [2]: 91.5%
- viability, T/C [3]: 59.5%
- viability, T/C [4]: 47.8%
- viability, T/C [5]: 23.8%
- viability, T/C [6]: 11.1%
- viability, T/C [7]: 105%
- viability, T/C [8]: 94.7%
- viability, T/C [9]: 55%
- viability, T/C [10]: 47.2%
- viability, T/C [11]: 30.2%
- viability, T/C [12]: 10.7%
- viability, T/C [13]: 100%
- viability, T/C [14]: 93.8%
- viability, T/C [15]: 70.8%
- viability, T/C [16]: 51.3%
- viability, T/C [17]: 23.9%
- viability, T/C [18]: 12%
- viability, T/C [19]: 111%
- viability, T/C [20]: 87.2%
- viability, T/C [21]: 60.4%
- viability, T/C [22]: 45.3%
- viability, T/C [23]: 24.3%
- viability, T/C [24]: 9.55%
- viability, T/C [25]: 111%
- viability, T/C [26]: 93.6%
- viability, T/C [27]: 62.6%
- viability, T/C [28]: 54.9%
- viability, T/C [29]: 20.4%
- viability, T/C [30]: 9%
- viability, T/C [31]: 110%
- viability, T/C [32]: 98.2%
- viability, T/C [33]: 58.2%
- viability, T/C [34]: 47.6%
- viability, T/C [35]: 23.7%
- viability, T/C [36]: 11%
